Experimental data reported in the PolyMetriX glass transition set.
± gives the standard deviation of the reports.

First: *CC(*)(C)C(=O)OCCOCCOC (repeat unit)
Second: *CC(*)(C)C(=O)OCCCCOc1ccc(OC(=O)c2ccc(OC)c(Br)c2)cc1 (repeat unit)
The glass transition temperature of the first is lower: 57.00 °C for the first, 69.00 °C for the second.

Compared with *c1ccc(/C=N/c2ccc(C(c3ccccc3)c3ccc(/N=C/c4ccc(-c5ccc(*)s5)cc4)cc3)cc2)cc1 (repeat unit), *c1ccc(Oc2cccc(NC(=O)c3ccc(C(=O)Nc4cccc(Oc5ccc(-c6nnc(*)o6)cc5)c4)c(Oc4ccccc4)c3)c2)cc1 (repeat unit) is higher in glass transition temperature: 129.00 °C for the first, 234.00 °C for the second.

First: *CCCCCCOc1ccc(C(=O)N(C(=O)c2ccc(O*)cc2)c2ccc(Oc3ccccc3)cc2)cc1 (repeat unit)
Second: *Oc1ccc(S(=O)(=O)c2ccc(Oc3ccc(C(=O)c4cccc(C(=O)c5ccc(*)cc5)c4)cc3)cc2)cc1 (repeat unit)
The glass transition temperature of the first is lower: 78.00 °C for the first, 178.00 °C for the second.

Compared with *C(=O)c1ccc2c(c1)C(=O)N(c1ccc(/C=C/c3ccc(N4C(=O)c5ccc(*)cc5C4=O)cc3)cc1)C2=O (repeat unit), *C(=O)N1C(=O)N(C(=O)c2ccc3c(c2)C(=O)N(c2ccc(Oc4ccc(N5C(=O)c6ccc(*)cc6C5=O)cc4)cc2)C3=O)C(CC)(CC)C1=O (repeat unit) is lower in glass transition temperature: 303.00 °C for the first, 160.00 °C for the second.

Compared with *CC(*)c1cc[n+](CCCCCCCC)cc1 (repeat unit), *CC(*)c1ccccc1COCCCC (repeat unit) is lower in glass transition temperature: 206.20 °C for the first, 67.00 °C for the second.

First: *CC(*)OC(=O)C(C)(C)C(C)(C)CC (repeat unit)
Second: *CC(*)(C)C(=O)OC1CCC(C(C)(C)C)CC1 (repeat unit)
The glass transition temperature of the first is lower: 90.00 °C for the first, 100.00 °C for the second.

First: *Oc1ccc(C(c2ccc(OC3(F)C(*)(F)C(F)(F)C3(F)F)cc2)(C(F)(F)F)C(F)(F)F)cc1 (repeat unit)
Second: *CC(=O)OC(=O)COc1ccc(C(C)(C)c2ccc(O*)cc2)cc1 (repeat unit)
The glass transition temperature of the first is higher: 122.50 °C for the first, 105.00 °C for the second.

First: *c1ccc2c(c1)C(=O)N(c1ccc(Sc3ccc(Oc4ccc(Sc5ccc(N6C(=O)c7ccc(C(*)(C(F)(F)F)C(F)(F)F)cc7C6=O)cc5)cc4)cc3)cc1)C2=O (repeat unit)
Second: *c1ccc2c(c1)C(=O)N(c1cccc(C(=O)Nc3ccc(-c4ccc(NC(=O)c5cccc(N6C(=O)c7ccc(C(*)(C(F)(F)F)C(F)(F)F)cc7C6=O)c5)cc4)cc3)c1)C2=O (repeat unit)
The glass transition temperature of the first is lower: 242.00 °C for the first, 324.00 °C for the second.

*CCCCCCCCCN1C(=O)c2ccc(Oc3ccc4c(c3)C(=O)N(*)C4=O)cc2C1=O (repeat unit) and *CCCCCCCCCCCN1C(=O)c2ccc(-c3ccc(-c4ccc5c(c4)C(=O)N(*)C5=O)cc3)cc2C1=O (repeat unit) are the same in glass transition temperature: 89.00 °C for the first, 89.00 °C for the second.

First: *c1ccc(S(=O)(=O)c2ccc(-n3nc(-c4ccccc4)c4ccc(S(=O)(=O)c5ccc6c(-c7ccccc7)nn(*)c(=O)c6c5)cc4c3=O)cc2)cc1 (repeat unit)
Second: *c1cccc(-n2nc(-c3ccccc3)c3cc(Oc4ccc5c(-c6ccccc6)nn(*)c(=O)c5c4)ccc3c2=O)c1C#N (repeat unit)
The glass transition temperature of the first is higher: 422.00 °C for the first, 301.00 °C for the second.

First: *C1C(=O)N(CCCCCCOc2ccc(-c3ccc(C#N)cc3)cc2)C(=O)C1* (repeat unit)
Second: *CC(*)(C)C(=O)OCCOc1ccc(-c2ccc(-c3ccc(C#N)cc3)cc2)cc1 (repeat unit)
The glass transition temperature of the first is lower: 76.00 °C for the first, 115.00 °C for the second.

Compared with *CCCCCC(=O)Oc1ccc2ccc(OC(=O)CCCCCn3c(=O)c4cc5c(=O)n(*)c(=O)c5cc4c3=O)cc2c1 (repeat unit), *c1ccc(-c2cc(-c3ccc(OCCCC#N)cc3)cc(-c3ccc(-n4c(=O)c5cc6c(=O)n(*)c(=O)c6cc5c4=O)cc3)n2)cc1 (repeat unit) is higher in glass transition temperature: 98.00 °C for the first, 345.00 °C for the second.

Compared with *CC(*)(C)C(=O)Oc1ccc(OCc2ccccc2)cc1 (repeat unit), *CC(*)(C)C(=O)NC(=O)Oc1ccc(S(=O)(=O)c2ccc(O)cc2)cc1 (repeat unit) is higher in glass transition temperature: 95.30 °C for the first, 182.00 °C for the second.

Going from *C(=O)c1ccc2nc(-c3ccccc3)c(-c3ccc(-c4nc5ccc(*)cc5nc4-c4ccccc4)cc3)nc2c1 (repeat unit) to *Oc1ccc(Oc2ccc(NC(=O)c3ccc(Oc4ccc(Oc5ccc(C(=O)Nc6ccc(*)cc6)cc5)cc4-c4ccccc4)cc3)cc2)cc1-c1ccccc1 (repeat unit), the glass transition temperature falls from 320.00 °C to 200.50 °C.

Compared with *c1ccc(Oc2ccc(N3C(=O)c4ccc(C(=O)c5ccc6c(c5)C(=O)N(c5ncc(*)s5)C6=O)cc4C3=O)cc2)cc1 (repeat unit), *c1cccc(Oc2cccc(Oc3cccc(N4C(=O)c5ccc(-c6cccc7c6C(=O)N(*)C7=O)cc5C4=O)c3)c2)c1 (repeat unit) is lower in glass transition temperature: 320.20 °C for the first, 213.00 °C for the second.

Compared with *Oc1ccc(NC(=O)/C=C/C(=O)NNC(=O)/C=C/C(=O)Nc2ccc(OC(=O)c3ccccc3C(=O)NNC(=O)c3ccccc3C(*)=O)cc2)cc1 (repeat unit), *Oc1cccc(NC(=O)c2ccc(C(=O)c3cccc(C(=O)Nc4ccc(*)cc4)c3)cc2)c1 (repeat unit) is lower in glass transition temperature: 240.00 °C for the first, 237.00 °C for the second.

Compared with *OC(=O)NC1CCC(CC2CCC(NC(=O)OC3CC4CC(*)CC(C3)O4)CC2)CC1 (repeat unit), *CCCC1(C)CCN(C(=O)CC(C)C(=O)N2CCC(*)(C)CC2)CC1 (repeat unit) is lower in glass transition temperature: 225.00 °C for the first, 72.00 °C for the second.

Compared with *NC(CCC(=O)OCCCCCC)C(*)=O (repeat unit), *CC(*)(CC(=O)OCCCCCCCC)C(=O)OCCCCCCCC (repeat unit) is higher in glass transition temperature: -25.00 °C for the first, -19.00 °C for the second.

Compared with *Oc1ccc(-c2ccc(Oc3c(F)c(F)c(COC(c4cccc(C(OCc5c(F)c(F)c(*)c(F)c5F)(C(F)(F)F)C(F)(F)F)c4)(C(F)(F)F)C(F)(F)F)c(F)c3F)cc2)cc1 (repeat unit), *c1ccc(Oc2ccc(C(c3ccc(Oc4ccc(-c5nnc(*)n5-c5ccc(S(C)(=O)=O)cc5)cc4)cc3)(C(F)(F)F)C(F)(F)F)cc2)cc1 (repeat unit) is higher in glass transition temperature: 110.00 °C for the first, 226.00 °C for the second.

Compared with *Oc1ccc(NC(=O)c2cc(C(=O)Nc3ccc(Oc4ccc(C(C)(C)c5ccc(*)cc5)cc4)cc3)cc(C(C)(C)C)c2)cc1 (repeat unit), *Oc1ccc(S(=O)(=O)c2ccc(Oc3ccc(NC(=O)c4ccc(-c5ccc(C(=O)Nc6ccc(*)cc6)c(C)c5)cc4C)cc3)cc2)cc1 (repeat unit) is higher in glass transition temperature: 244.00 °C for the first, 251.00 °C for the second.

Going from *CCCCOC(=O)C(Cc1ccccc1)NC(=O)/C=C/C(=O)NC(Cc1ccccc1)C(=O)O* (repeat unit) to *Oc1ccc(CC(NC(=O)CCc2ccc(OC(=O)CCCCCCC(*)=O)cc2)C(=O)OCCCCCCCC)cc1 (repeat unit), the glass transition temperature falls from 103.00 °C to 22.00 °C.

First: *Oc1ccc(C(c2ccccc2)(c2ccccc2)c2ccc(OC(=O)OC3C(C)(C)C(OC(*)=O)C3(C)C)cc2)cc1 (repeat unit)
Second: *C(=O)c1ccc(Oc2ccc(C(C)(C)c3ccc(Oc4ccc(*)s4)cc3)cc2)s1 (repeat unit)
The glass transition temperature of the first is higher: 161.00 °C for the first, 124.00 °C for the second.

Compared with *Oc1cccc(Oc2ccc3c(=O)n4c5cc(-c6ccc7c(c6)nc6c8ccc(*)c9cccc(c(=O)n76)c98)ccc5nc4c4cccc2c34)c1 (repeat unit), *Oc1ccc(C(C)(C)c2ccc(Oc3ccc4c(=O)n5c6cc(-c7ccc8c(c7)nc7c9ccc(*)c%10cccc(c(=O)n87)c%109)ccc6nc5c5cccc3c45)cc2)cc1 (repeat unit) is lower in glass transition temperature: 396.50 °C for the first, 380.00 °C for the second.

Going from *CC(*)c1nc(C)nc(C)n1 (repeat unit) to *CC(*)c1ccccc1C(=O)OC (repeat unit), the glass transition temperature rises from 70.00 °C to 130.00 °C.

Going from *CC(=O)Nc1ccc(C2(c3ccc(NC(=O)c4ccc5c(c4)C(=O)N(*)C5=O)cc3)c3ccccc3-c3ccccc32)cc1 (repeat unit) to *Oc1ccc(Oc2ccc(NC(=O)c3ccc(Oc4ccc(Oc5ccc(C(=O)Nc6ccc(*)cc6)cc5)cc4-c4ccccc4)cc3)cc2)cc1 (repeat unit), the glass transition temperature falls from 345.00 °C to 209.00 °C.

Compared with */C=C/c1cc(OCC(CC)CCCC)c(/C=C/c2cc(OC)c(*)cc2OC)cc1OC (repeat unit), *OCCOC(=O)CCCCC(=O)OCCOc1nc(-c2ccc(OC)cc2)nc(*)c1-c1ccc(OC)cc1 (repeat unit) is lower in glass transition temperature: 110.00 °C for the first, 48.00 °C for the second.

Going from */C=C/C1CC(*)C(C(=O)OCCCCCCCCOc2ccc(/C=C/c3ccc([N+](=O)[O-])cc3)cc2)C1 (repeat unit) to *CCCCCCCCCCCCCCCCOC(=O)Nc1ccc(Cc2ccc(NC(=O)O*)cc2)cc1 (repeat unit), the glass transition temperature falls from 51.00 °C to 40.00 °C.

First: *Oc1ccc(C(C)(C)c2ccc(OC(=O)c3cccc(C(*)=O)c3)c(C)c2)cc1C (repeat unit)
Second: *Nc1ccc(Cc2ccc(NC(=O)c3cccc(C(*)=O)c3)cc2)cc1 (repeat unit)
The glass transition temperature of the first is lower: 162.00 °C for the first, 265.00 °C for the second.

Compared with *c1ccc(Oc2ccc(-c3ccc(Oc4ccc(N5C(=O)c6ccc(Oc7cc(C(C)(C)C)c(Oc8ccc9c(c8)C(=O)N(*)C9=O)cc7C(C)(C)C)cc6C5=O)cc4)cc3)cc2)cc1 (repeat unit), *c1ccc(C)c(N2C(=O)c3ccc(S(=O)(=O)c4ccc5c(c4)C(=O)N(*)C5=O)cc3C2=O)c1 (repeat unit) is higher in glass transition temperature: 262.00 °C for the first, 348.00 °C for the second.

Compared with *Oc1ccc(C(C)c2ccc(OC(*)=O)cc2)cc1 (repeat unit), *CCOC(=O)c1ccc(C(=O)O*)c2ccccc12 (repeat unit) [Poly(ethylene- 1 ,4-naphthalenedicarboxylate) ] is lower in glass transition temperature: 130.00 °C for the first, 64 ± 1.2 °C for the second.

Going from *CC/C=C(/*)CCCCCCCCCC (repeat unit) to *CCCCCCNC(=O)c1c(Cl)c(Cl)c(C(=O)N*)c(Cl)c1Cl (repeat unit), the glass transition temperature rises from -53.00 °C to 282.00 °C.

Compared with */C(C)=C(/*)CCC (repeat unit), *CC(*)(C)c1ccc(C)cc1 (repeat unit) is lower in glass transition temperature: 200.00 °C for the first, 176.00 °C for the second.

With *CC(*)Cc1ccccc1 (repeat unit) the glass transition temperature was 70.00 °C.
